Source: paper PMC9260667, “Thioredoxin Reductase Inhibitors as Potential Antitumors: Mercury Compounds Efficacy in Glioma Cells” (Frontiers in Molecular Biosciences, 2022)
pIC50: −log10 of the molar value.

Tests used:
[1] = tested on: GL261 cells; assay: ROS production (H2DCFDA assay); assay type: cell-based, mouse; conditions: GL261, 3 h exposure, 0.5-5 µM
Method: The assessment of general ROS production was based on the 2′,7′-dichlorodihydrofluorescein diacetate (H2DCFDA) assay ([Huang et al., 2014]).
Cells (8 × 10^4) were plated in black 96-well microplates and then incubated at 37°C for 24 h. Afterwards, the medium was removed, the cells were washed twice with PBS 1x, and culture media with DHCF-DA ([…]) was added to each well followed by a 40 min incubation at 37°C. After the incubation period, the DHCF-DA containing media was removed and the wells were washed twice with PBS 1x before being replenished with fresh medium. This was followed by exposure of cells to Hg compounds (EtHg and TmHg 0.5; 1, 2.5; and 5 µM) for 3 h using 1 mM H2O2 as a positive control. The fluorescence signal was read in a microplate reader (Zenyth 3100, Anthos Labtec Instruments) using 495 nm as the excitation wavelength and 529 nm as the emission wavelength.

[2] = tested on: Trx1 and Trx2; assay: Trx oxidation state (Redox Western); assay type: cell-based, mouse; conditions: GL261, 1 µM, 24 h
Method: The redox state of Trx1 and Trx2 was evaluated by the quantification of the number of reduced -SH groups (Free -SH), according to the Protein Electrophoretic Mobility Shift Assay ([Bersani et al., 2002]; [Branco et al., 2017]).
Briefly, after exposure to the TmHg and EtHg for 24 h, cell pellets were resuspended in Sample Solution (SS - Tris 50 mM, Urea 8 M, pH 8.3) containing 30 mM of iodoacetic acid (IAA; Sigma) and incubated at 37°C for 30 min to alkylate free thiols. This was followed by centrifugation at 13,000 g for 10 min, and the resulting supernatant was washed 3 times with an acetone/1 M HCl mix (98:2 v/v), followed by centrifugation at 13,000 g for 5 min. After evaporation of the acetone mixture, the resulting pellet was incubated at 37°C for 30 min in a SS solution containing 5 mM of DTT to reduce thiols oxidized by TmHg and EtHg. Posteriorly, these thiols were alkylated with SS containing 10 mM iodoacetamide (IAM; Sigma) at 37°C for 30 min.
Next, the samples were loaded onto a Urea-PAGE gel (stacking gel: 4% acrylamide; run gel: 12% acrylamide; 8 M Urea) and run at 10 mA. After 2 h, the proteins in the gel were transferred to a nitrocellulose membrane blocked with skimmed milk and incubated with respective antibodies - Trx1 rabbit polyclonal IgG (ATRX8, IMCO Corp.), Trx2 rabbit polyclonal IgG (sc-50335, Sta. Cruz) and mouse anti-rabbit IgG-HRP (sc-2357, Sta. Cruz). […]

[3] = tested on: Trx; assay type: cell-based, mouse; conditions: whole-cell lysates, GL261 exposed 24 h
Method: (§1) Total cell lysates were prepared according to previous protocols ([Branco et al., 2014]). 1 × 10^6 cells were plated in […] culture dishes incubated at 37°C until reaching 70–80% confluence. At this point, the culture medium was refreshed and TmHg and EtHg (0.5; 1; 2 µM) were added and incubated at 37°C for 24 h, after which cells were collected by trypsinization and washed with PBS 1x. Subsequently, the pellet was resuspended in lysis buffer (25 mM TrisCl, pH 7.5; 100 mM NaCl; 2.5 mM EDTA; 2.5 mM EGTA; 20 mM NaF, 1 mM sodium orthovanadate, 20 mM sodium pyrophosphate; 20 mM of sodium β-glycerophosphate, 0.5% Triton X-100, and 1 tablet of protease inhibitor cocktail per 10 ml; Roche) vortexed and frozen at −20°C. These lysates were compared to a control group and used to quantify TrxR and Trx activity and expression as described below.
(§2) To obtain the mitochondrial and cytosolic fractions, after exposure to Hg compounds cells were washed and suspended in mitochondrial isolation buffer (210 mM mannitol, 70 mM sucrose, 1 mM EDTA, 10 mM Hepes–NaOH, and pH 7.5), containing protease inhibitor cocktail (Roche). Cells were disrupted with a Teflon pestle and then centrifuged at 600 g for 10 min at 4°C. The resulting nuclear pellets were discarded, and the supernatant was further centrifuged at 13,000 g and 4°C for 15 min, to obtain the mitochondrial pellets and the supernatant soluble fraction. Mitochondrial pellets were treated with cell lysis buffer as described above for whole-cell lysates and the supernatant fraction was further centrifuged at 100,000 g and 4°C for 1 h, to produce the cytosolic fraction ([Branco et al., 2014]). These fractions were used to quantify TrxR and Trx activity and expression as described below.
(§3) The enzymatic activity of TrxR and Trx was determined according to the insulin end-point assay described by [Arnér and Holmgren (2000)] with modifications ([Branco et al., 2014]).
(§4) In parallel, control wells were prepared to contain the same reagents previously mentioned apart from Trx. After the incubation period, 250 µL of a 1 mM DTNB solution in 6 M guanidine-HCL (pH 8.0) was added to wells, and absorbance was measured at 412 nm in a microplate reader (Zenyth 3100, Anthos Labtec Instruments). […] The same procedure was done for the determination of Trx activity, but the samples were incubated with 100 nM of recombinant rat TrxR (IMCO Corp, Sweden) instead of Trx ([Branco et al., 2014]).

[4] = target: T1, Trx (Mus musculus, UniProt P10639); assay type: cell-based; conditions: cytosol, GL261 exposed 24 h
T1 construct: These lysates were compared to a control group and used to quantify TrxR and Trx activity and expression; These fractions were used to quantify TrxR and Trx activity and expression; endogenous in cells; host or cells: GL261 mouse glioma cells (whole lysate, cytosolic and mitochondrial fractions)
Method: as §1, §2, §3, §4

[5] = target: T2, TrxR (Mus musculus, UniProt Q9JLT4); assay type: cell-based; conditions: mitochondria, 1 µM, 24 h
T2 construct: These lysates were compared to a control group and used to quantify TrxR and Trx activity and expression; These fractions were used to quantify TrxR and Trx activity and expression; endogenous in cells; host or cells: GL261 mouse glioma cells (whole lysate, cytosolic and mitochondrial fractions)
Method: as §1, §2, §3, §4

[6] = tested on: TrxR; assay type: cell-based, mouse; conditions: for decrease of TrxR activity: cytosol, 1 µM, 24 h; for pIC50: whole-cell lysates, GL261 exposed 24 h
Method: as §1, §2, §3, §4

[7] = target: T3, Trx (Mus musculus, UniProt P97493); assay type: cell-based; conditions: mitochondria, GL261 exposed 24 h
T3 construct: These lysates were compared to a control group and used to quantify TrxR and Trx activity and expression; These fractions were used to quantify TrxR and Trx activity and expression; endogenous in cells; host or cells: GL261 mouse glioma cells (whole lysate, cytosolic and mitochondrial fractions)
Method: as §1, §2, §3, §4

T2 sequence (Q9JLT4 35-524): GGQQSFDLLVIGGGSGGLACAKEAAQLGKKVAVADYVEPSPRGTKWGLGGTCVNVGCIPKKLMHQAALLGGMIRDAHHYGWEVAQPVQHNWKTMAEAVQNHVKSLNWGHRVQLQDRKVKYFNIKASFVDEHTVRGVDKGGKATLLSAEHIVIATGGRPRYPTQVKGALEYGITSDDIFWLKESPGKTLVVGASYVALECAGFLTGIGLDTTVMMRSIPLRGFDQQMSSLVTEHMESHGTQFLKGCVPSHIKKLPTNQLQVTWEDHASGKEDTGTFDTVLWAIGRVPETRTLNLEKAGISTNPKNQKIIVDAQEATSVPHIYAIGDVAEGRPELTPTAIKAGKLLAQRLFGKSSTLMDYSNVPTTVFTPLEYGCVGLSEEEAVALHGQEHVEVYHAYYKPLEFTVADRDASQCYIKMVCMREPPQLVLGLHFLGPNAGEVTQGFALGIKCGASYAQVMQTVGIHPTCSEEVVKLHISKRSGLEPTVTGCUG
T3 sequence (P97493 60-166): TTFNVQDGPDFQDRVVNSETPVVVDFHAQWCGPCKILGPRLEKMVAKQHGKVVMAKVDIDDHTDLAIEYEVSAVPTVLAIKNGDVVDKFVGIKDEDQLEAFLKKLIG
T1 sequence (P10639 whole entry): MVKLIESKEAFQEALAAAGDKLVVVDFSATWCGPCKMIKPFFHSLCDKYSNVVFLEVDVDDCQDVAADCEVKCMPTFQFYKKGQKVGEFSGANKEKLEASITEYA

Structure (SMILES) | ROS production [1] | redox states of Trx1 and Trx2 [2] | pIC50 [3] | pIC50 [4] | decrease of TrxR activity [5] | decrease of TrxR activity [6] [%] | pIC50 [6] | pIC50 [7]
C[CH2][Hg][S]c1ccccc1C(=O)[O-].[Na+] [TmHg, thimerosal] | concentration-dependent increase | increasing the oxidation of Cys residues in both isoforms | 6.15 | 5.92 | 60% | 60 | 6.15 | 5.80
C[CH2][Hg] [EtHg, ethylmercury] | concentration-dependent increase | increasing the oxidation of Cys residues in both isoforms | 5.89 |  | lesser effect | 50 | 6.10 | 
